According to patent publication US10583154B2, “Multi-dose compositions containing an antimicrobial polyamide or octenidine preservative” (priority 2016, dated 2020):

Assays:
[1] = system: Pseudomonas aeruginosa; experiment: Antimicrobial preservative efficacy test (dilution neutralization), preservative as WFI solution; assay type: cell-based
Description: Preservatives are commonly used in multi-dose formulations, including animal vaccines, to prevent bacterial or fungal growth in field conditions and are employed to minimize contamination of the formulations during repeated (non-sterile) punctures into the vial. Preservatives must pass antimicrobial effectiveness testing (AET), as described in the US pharmacopeia. As disclosed herein, Applicants performed the antimicrobial tests according to United States Pharmacopeia (USP), British Pharmacopeia (BP), and European Pharmocopeia (EP). Four test organisms were used: Candida albicans, Pseudomonas aeruginosa, Staphylococcus aureus, and A. brasiliensis. And while thimerosal and formol continue to play an important role in veterinary vaccines, European authorities encourage the development of vaccines that are free from those compounds.
(§1) For each concentration of polyamide polymer, dilution neutralization was carried out by inoculating 10 mL of test product with 100 μL of each test strain. Countings were performed at Do, 6 h (bacteria only), 24 h (bacteria only), D7, D14 and D28. For each counting, 1 mL of the sample was neutralized in 9 mL of neutralizing solution (10 minutes), for S. aureus, a second 1:10 dilution in the same solution. Then 1 mL of the mixture was transferred in Petri dishes and covered with 15 mL of agar medium (Trypcase Soy Agar for bacteria and Sabouraud Dextrosed Agar for yeasts and molds). The countings were achieved after 24-48 hours incubation at 32.5° C.±2.5° C. for bacteria, and 48-72 hours at 22.5° C.[…] for yeasts and molds. The test micro-organisms included Staphylococcus aureus, Pseudomonas aeruginosa, Candida albicans and Aspergillus brasiliensis. Finally, the neutralization solution contained: Tween 80 (10%), lecithin (2%), saponin (2%), sodium thiosulfate (0.5%) and buffered solution chloride. The saponin was from the bark of Quillaja saponaria.
For each concentration of octenidine, dilution neutralization was carried out as disclosed in Example 1.

[2] = system: S. aureus, P. aeruginosa, C. albicans, A. brasiliensis; experiment: Preservative efficacy in TS6 oil-in-water emulsion vaccine, overall verdict; assay type: cell-based; settings: 100 μg/ml alone; oily vaccine environment; previous experiment
Experimental: as §1
For each concentration of preservative (or preservative combination), dilution neutralization and other testing was carried out as disclosed in Example 1. The “TS6” formulation is an oil-in-water emulsion, described in U.S. Pat. No. 7,371,395 B2 (to Merial, Inc.; see especially Example 1). […]

[3] = cited from earlier work

## CCCCCCCCN=c1ccn(CCCCCCCCCCn2ccc(=NCCCCCCCC)cc2)cc1.Cl.Cl [Octenidine Dihydrochloride, Octenidine dihydrochloride]
[1]; 0.001 mg/mL, 6 h
  log reduction: 3 log
  viable count: 1.0 × 10^3
[1]; 0.001 mg/mL, 24 h
  log reduction: 3 log
  viable count: 1.0 × 10^4
[1]; 0.001 mg/mL, 7 d
  log reduction: 0 log
  viable count: >3.3 × 10^6
[1]; 0.001 mg/mL, 14 d
  log reduction: 0 log
  viable count: >3.3 × 10^6
[1]; 0.001 mg/mL, 28 d
  log reduction: 0 log
  viable count: >3.3 × 10^6
[1]; 0.001 mg/mL, T0
  viable count: 7.5 × 10^4
[1]; 0.01 mg/mL, 6 h
  log reduction: >5.1 log
  viable count: <10
[1]; 0.01 mg/mL, 24 h
  log reduction: >5.1 log
  viable count: <10
[1]; 0.01 mg/mL, 7 d
  log reduction: 4.4 log
  viable count: <10
[1]; 0.01 mg/mL, 14 d
  log reduction: 4.4 log
  viable count: <10
[1]; 0.01 mg/mL, 28 d
  log reduction: 4.4 log
  viable count: <10
[1]; 0.01 mg/mL, T0
  viable count: <10
[1]; 0.1 mg/mL, 6 h
  log reduction: >5.1 log
  viable count: <10
[1]; 0.1 mg/mL, 24 h
  log reduction: >5.1 log
  viable count: <10
[1]; 0.1 mg/mL, 7 d
  log reduction: 4.4 log
  viable count: 50
[1]; 0.1 mg/mL, 14 d
  log reduction: >5.1 log
  viable count: <10
[1]; 0.1 mg/mL, 28 d
  log reduction: >5.1 log
  viable count: <10
[1]; 0.1 mg/mL, T0
  viable count: <10
[1]; 1 mg/mL, 6 h
  log reduction: >5.1 log
  viable count: <10
[1]; 1 mg/mL, 24 h
  log reduction: >5.1 log
  viable count: <10
[1]; 1 mg/mL, 7 d
  log reduction: >5.1 log
  viable count: <10
[1]; 1 mg/mL, 14 d
  log reduction: >5.1 log
  viable count: <10
[1]; 1 mg/mL, 28 d
  log reduction: >5.1 log
  viable count: <10
[1]; 1 mg/mL, T0
  viable count: <10
[2]
  preservative efficacy: did not exhibit satisfactory preservative efficacy
[3]
  LD50 on rat: LD50 on rat = 10 mg/kg
